Common to all, as to format: in vivo
One experiment has as its system Amaranthus retroflexus. Kind of experiment: Greenhouse post-emergence (POST) herbicidal test on AMARE. The note with it: Amaranthus retroflexus, post-emergence, 480 h, POST, 20 DAT. In short, it runs like this:
(§1)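 Sow or transplant seedlings into loamy-sand pots; grow to 3–15 cm; spray aqueous suspension/emulsion of actives from a 5% by weight emulsion concentrate; hold at 10-25° C or 20-35° C depending on species; score injury 0–100 at 20 DAT.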

The test system of experiment [1] is Geranium pusillum. Kind of experiment: Greenhouse post-emergence (POST) herbicidal test on GERPU. The note with it: Geranium pusillum, post-emergence, 480 h, POST, GERPU, 20 DAT. In short, it runs like this: as §1
The next experiment concerns Euphorbia heterophylla. Kind of experiment: Greenhouse pre-emergence (PRE) herbicidal test on EPHHL. The note with it: Euphorbia heterophylla, pre-emergence. Summed up: (§2)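 Seeds were sown per species in loamy sand with ~3.0% humus, treated pre-emergence and kept at 10-25° C or 20-35° C depending on species. Damage was scored at 20 days after treatment on a 0-100 scale (100 = no emergence or complete destruction of above-ground parts, 0 = no damage).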

Experiment [2] has as its system Abutilon theophrasti. The experiment is described as follows: Greenhouse post-emergence (POST) herbicidal test on ABUTH. The note with it: Abutilon theophrasti, post-emergence, 480 h, POST, ABUTH, 20 DAT. In short, it runs like this:
as §1

The subject of a further experiment is Ipomoea hederacea. Kind of experiment: Greenhouse pre-emergence (PRE) herbicidal test on IPOHE. The note with it: Ipomoea hederacea, pre-emergence. The source says: (§3) The culture containers used were plastic pots containing loamy sand with approximately 3.0% of humus as substrate. The seeds of the test plants were sown separately for each species.
(§4) For the pre-emergence treatment, the active compounds, suspended or emulsified in water, were applied directly after sowing by means of finely distributing nozzles. The containers were irrigated gently to promote germination and growth and subsequently covered with transparent plastic hoods until the plants had rooted. This cover caused uniform germination of the test plants unless this was adversely affected by the active compounds.
(§5) Depending on the species, the plants were kept at 10-25° C. and 20-35° C., respectively.
(§6) The test period extended over 2 to 4 weeks. During this time, the plants were tended and their response to the individual treatments was evaluated.
(§7) Evaluation was carried out using a scale from 0 to 100. 100 means no emergence of the plants, or complete destruction of at least the above-ground parts, and 0 means no damage or normal course of growth. A good herbicidal activity is given at values of at least 70, and very good herbicidal activity is given at values of at least 85.
(§8) If not stated differently, the respective components A and B, and if appropriate, C were formulated as a 5% by weight strength emulsion concentrate and, with addition of the amount of solvent system, introduced into the spray liquor used for applying the active compound.
(§9) As indicated application was either post emergent (POST) at the respective growth stage (GS) of the weed (BBCH code), or pre-emergent (PRE).
(§10) Assessment was 20 days after treatment (DAT).

In the next experiment the test system is Avena fatua. The experiment is described as follows: Greenhouse pre-emergence (PRE) herbicidal test on AVEFA.
Excerpt: as §3, §4, §5, §6, §7, §8, §9, §10

Experiment [3] relates to Commelina benghalensis. Kind of experiment: Greenhouse pre-emergence (PRE) herbicidal test on COMBE. The note with it: Commelina benghalensis, pre-emergence. In short, it runs like this:
as §2

The test system of a further experiment is Galium aparine. Kind of experiment: Greenhouse pre-emergence (PRE) herbicidal test on GALAP. The note with it: Galium aparine, pre-emergence; GALAP PRE, use rate 1200 gai/ha.
Excerpt: as §3, §4, §5, §6, §7, §8, §9, §10

Experiment [4] has as its system Abutilon theophrasti. Kind of experiment: Greenhouse pre-emergence (PRE) herbicidal test on ABUTH. In short, it runs like this:
as §2

The test system of another experiment is Lolium multiflorum. The experiment is described as follows: Greenhouse pre-emergence (PRE) herbicidal test on LOLMU. The note with it: Lolium multiflorum, pre-emergence, LOLMU PRE. Summed up: as §2
In experiment [5] the test system is Geranium pusillum. The experiment is described as follows: Greenhouse pre-emergence (PRE) herbicidal test on GERPU. The note with it: Geranium pusillum, pre-emergence, GERPU PRE.
Excerpt: as §3, §4, §5, §6, §7, §8, §9, §10

A further experiment concerns Alopecurus myosuroides. The experiment is described as follows: Greenhouse pre-emergence (PRE) herbicidal test on ALOMY. The note with it: Alopecurus myosuroides, pre-emergence, ALOMY PRE. In short, it runs like this: as §2
Experiment [6] relates to Echinochloa crus-galli. The experiment is described as follows: Greenhouse post-emergence (POST) herbicidal test on ECHCG. The note with it: Echinochloa crus-galli, post-emergence, 480 h, POST, ECHCG, use rate 100 gai/ha, 20 DAT; read-out: % activity. In short, it runs like this: as §1
A further experiment relates to Digitaria sanguinalis. The experiment is described as follows: Greenhouse post-emergence (POST) herbicidal test on DIGSA. The note with it: Digitaria sanguinalis, post-emergence, 480 h, POST, DIGSA, use rate 100 gai/ha, 20 DAT. Summed up: as §1
Experiment [7] concerns Commelina benghalensis. The experiment is described as follows: Greenhouse post-emergence (POST) herbicidal test on COMBE. The note with it: 480 h, 20 DAT. How it is done:
as §3
For the post-emergence treatment, the test plants were grown to a plant height of from 3 to 15 cm, depending on the plant habit, and only then treated with the active compounds which had been suspended or emulsified in water. To this end, the test plants were either sown directly, and grown in the same containers, or they were first grown separately as seedlings and transplanted into the test containers a few days prior to treatment.
as §5, §6, §7, §8, §9, §10

Another experiment deals with Brachiaria decumbens. Kind of experiment: Greenhouse pre-emergence (PRE) herbicidal test on BRADC. The note with it: Urochloa decumbens, BRADC PRE, use rate 400 gai/ha.
Excerpt: as §3, §4, §5, §6, §7, §8, §9, §10

In another experiment the test system is AMAPA. The experiment is described as follows: Greenhouse pre-emergence (PRE) herbicidal test on AMAPA.
The next experiment concerns Ambrosia artemisiifolia. Kind of experiment: Greenhouse pre-emergence (PRE) herbicidal test on AMBEL. The note with it: PRE, 10 DAT.
Experiment [8] concerns Echinochloa crus-galli. The experiment is described as follows: Greenhouse pre-emergence (PRE) herbicidal test on ECHCG. The note with it: PRE, 10 DAT.

Take `Cc1ccccc1CO[C@@H]1C[C@@]2(C(C)C)CC[C@]1(C)O2` (racemic) [Cinmethylin, cinmethylin]: the inhibition at 25 g/ha with Amaranthus retroflexus (AMARE, use rate 25 gai/ha) stood at 0%; with Geranium pusillum [1] (use rate 25 gai/ha), 10%; in the experiment on Euphorbia heterophylla (480 h, PRE, EPHHL, use rate 25 gai/ha, 20 DAT) it was 0%; with Ipomoea hederacea (480 h, PRE, IPOHE, use rate 25 gai/ha, 20 DAT) it was 0%. Besides, the inhibition at 100 g/ha is 30% with Amaranthus retroflexus (AMARE, use rate 100 gai/ha, read-out: % activity) and 0% in the experiment on Abutilon theophrasti [2] (use rate 100 gai/ha). The inhibition at 50 g/ha with Euphorbia heterophylla (480 h, PRE, EPHHL, use rate 50 gai/ha, 20 DAT) was 0%; in the experiment on Abutilon theophrasti [2] (use rate 50 gai/ha) it was 0%; in the experiment with Ipomoea hederacea (480 h, PRE, IPOHE, use rate 50 gai/ha, 20 DAT) it was 0%.

`Nc1c([N+](=O)[O-])ccc(Oc2ccccc2)c1Cl` [Aclonifen, aclonifen]: the inhibition at 300 g/ha came to 0% in the experiment on Avena fatua (use rate 300 gai/ha); 10% with Lolium multiflorum (use rate 300 gai/ha); 30% in the experiment on Geranium pusillum [5] (use rate 300 gai/ha); 20% in the experiment on Euphorbia heterophylla (EPHHL PRE, use rate 300 gai/ha); 0% in the experiment on Alopecurus myosuroides (use rate 300 gai/ha). Further, the inhibition at 1200 g/ha was determined as 0% in the experiment on Avena fatua (use rate 1200 gai/ha); 85% in the experiment on Commelina benghalensis [3] (COMBE PRE, use rate 1200 gai/ha); 45% with Galium aparine; 35% in the experiment with Abutilon theophrasti [4] (Abutilon theophrasti, pre-emergence, ABUTH PRE, use rate 1200 gai/ha); 65% in the experiment with Geranium pusillum [5] (use rate 1200 gai/ha); 50% in the experiment on Euphorbia heterophylla (EPHHL PRE, use rate 1200 gai/ha). Further, the inhibition at 1200 g/ha came out at 0% in the experiment on Ipomoea hederacea (IPOHE PRE, use rate 1200 gai/ha) and 50% in the experiment on Alopecurus myosuroides (use rate 1200 gai/ha).

`O=C(Nc1ccc(F)cc1F)c1cccnc1Oc1cccc(C(F)(F)F)c1` [Diflufenican, diflufenican]: the inhibition at 100 g/ha in the experiment with Echinochloa crus-galli [6] amounted to 40%; in the experiment on Digitaria sanguinalis it was 35%; in the experiment on Commelina benghalensis [7] (use rate 100 gai/ha), 20%. The inhibition at 50 g/ha in the experiment with Geranium pusillum [1] (use rate 50 gai/ha) and in the experiment with Commelina benghalensis [7] (use rate 50 gai/ha) was 25% each time.

As to `CCC(C)(CC)c1cc(NC(=O)c2c(OC)cccc2OC)on1` [Isoxaben, isoxaben], the inhibition at 100 g/ha came out at 0% in the experiment on Avena fatua (use rate 100 gai/ha), 0% in the experiment with Lolium multiflorum (use rate 100 gai/ha) and 15% with Geranium pusillum [5] (use rate 100 gai/ha). Further, the inhibition at 400 g/ha was found to be 0% in the experiment with Avena fatua (use rate 400 gai/ha), 0% in the experiment with Lolium multiflorum (use rate 400 gai/ha), 15% in the experiment with Alopecurus myosuroides (use rate 400 gai/ha) and 0% in the experiment on Brachiaria decumbens.

As to `O=C(O)c1c(Cl)ccc2cc(Cl)cnc12` [Quinclorac, quinclorac], the inhibition at 500 g/ha with Commelina benghalensis [3] (480 h, PRE, use rate 500 gai/ha, 20 DAT) stood at 65%; in the experiment with AMAPA (pre-emergence, 480 h, use rate 500 gai/ha, 20 DAT), 70%. Moreover, the inhibition at 125 g/ha is 50% with Amaranthus retroflexus (use rate 125 gai/ha) and 65% in the experiment with AMAPA (pre-emergence, 480 h, use rate 125 gai/ha, 20 DAT). In the experiment on AMAPA (pre-emergence, 480 h, use rate 62.5 gai/ha, 20 DAT), this compound showed an inhibition at 62.5 g/ha of 60%. For the same compound, the inhibition at 250 g/ha in the experiment on AMAPA (pre-emergence, 480 h, use rate 250 gai/ha, 20 DAT) was determined as 65%.

With icafolin, the “% activity” value in the experiment with Abutilon theophrasti [4] (PRE, use rate 12.5 gai/ha, 10 DAT) came out at 20%; with AMAPA (use rate 25 gai/ha, 10 DAT), 10%; in the experiment with Ambrosia artemisiifolia (use rate 25 gai/ha), 10%; with Ambrosia artemisiifolia (use rate 50 gai/ha) it was 15%; in the experiment with Echinochloa crus-galli [8] (use rate 12.5 gai/ha), 25%; in the experiment on Echinochloa crus-galli [8] (use rate 50 gai/ha), 30%.
